The source of these data is patent US5218123A, “Didehydrotryptophan derivatives and pharmaceutical use thereof” (Warner-Lambert Company, priority 1992, dated 1993).

One experiment concerns the target T1, Central CCK-B Receptors (Mus musculus, UniProt P56481).
T1 construct: from tissue; host or cells: cerebral cortex membranes of male CFLP mice (30 to 40 g)
T1 sequence (P56481 1-453): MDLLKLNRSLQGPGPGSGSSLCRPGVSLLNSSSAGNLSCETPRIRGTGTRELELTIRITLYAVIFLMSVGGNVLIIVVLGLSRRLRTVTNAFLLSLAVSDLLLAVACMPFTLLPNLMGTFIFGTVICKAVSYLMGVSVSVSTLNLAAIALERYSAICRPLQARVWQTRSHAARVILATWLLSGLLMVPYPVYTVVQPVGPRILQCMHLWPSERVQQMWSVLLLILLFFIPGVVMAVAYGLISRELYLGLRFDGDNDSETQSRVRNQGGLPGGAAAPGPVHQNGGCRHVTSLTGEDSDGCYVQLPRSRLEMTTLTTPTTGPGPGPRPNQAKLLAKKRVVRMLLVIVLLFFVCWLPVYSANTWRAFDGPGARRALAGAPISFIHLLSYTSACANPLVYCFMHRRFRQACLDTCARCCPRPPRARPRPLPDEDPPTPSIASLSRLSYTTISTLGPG
In words: Binding to central CCK-B receptors: displacement of tritiated-pentagastrin from cerebral cortical membranes. Also on record: species or system mouse (male CFLP mice). To be noted: tritiated-pentagastrin 2 nM, 23° C., pH 7.2. Here is the method: The biological activity of compounds of the present invention was evaluated employing an initial screening test which rapidly and accurately measured the binding of the tested compound to known CCK receptor sites. […] (See Hays, et al, Neuropeptides 1:53-62, 1980; and Satuer et al, Science 208:1155-1156, 1980.)
In this screening test, the cerebral cortices taken from male CFLP mice weighing between 30 to 40 g were dissected on ice, weighed, and homogenized in 10 volumes of 50 mM Tris-HCl buffer (pH 7.4 at 0°-4° C.). The resulting suspension was centrifuged, the supernate was discarded, and the pellet was washed by resuspension in Tris-HCl buffer followed by recentrifugation. The final pellet was resuspended in 20 volumes of […] buffer (pH 7.2 at 23° C.) containing 130 mM NaCl, […], […], […], 5 mg/mL bovine albumin, and bacitracin (0.25 mg/mL).
In saturation studies, cerebral cortical membranes were incubated at 23° C. for 120 minutes in a final volume of 500 μL of Hepes incubation buffer (pH 7.2) together with 0.2-20 nM tritiated-pentagastrin (Amersham International, England).
In the displacement experiments, membranes were incubated with a single concentration (2 nM) of ligand, together with increasing concentrations ([…] to 10^-4 M) of competitive test compound. In each case, the nonspecific binding was defined as that persisting in the presence of the unlabeled octapeptide CCK26-33 (10^-6 M).
Following incubation, radioactivity bound to membranes was separated from that free in solution by rapid filtration through Whatman GF/B filters and washed three times with 4 mL of ice cold Tris-HCl buffer. Filters from samples incubated with tritiated pentagastrin were placed in polyethylene vials with 4 mL of scintillation cocktail, and the radioactivity was estimated by liquid scintillation spectrometry (efficiency 47% to 52%).
The specific binding to CCK receptor sites was defined as the total bound tritiated-pentagastrin minus the amount of tritiated-pentagastrin bound in the presence of 10^-6 octapeptide, CCK26-33.
Saturation curves for specific tritiated-pentagastrin binding to mouse cortical membranes were analyzed by the methods of Scatchard (Ann. New York Acad. Sci. 51:660-672, 1949), and Hill (J. Physiol. 40:IV-VIII, 1910), to provide estimates for the maximum number of binding sites (Bmax) and the equilibrium dissociation constant (Ka).
In displacement experiments, inhibition curves were analyzed by either logit-log plots or the iterative curve fitting computer program ALLFIT (DeLean, Munson, and Redbard, 1978) to provide estimates of the IC50 and nH (apparent Hill coefficient values). (IC50 values were defined as the concentration of test compound required to produce 50% inhibition of specific binding.)
The inhibition constant (Ki) of the test compound was then calculated according to the Cheng Prusoff equation: [formula] where [L]is the concentration of radiolabel and Ka is the equilibrium dissociation constant.
^a Binding affinity protocol Horwell, et al, J. Med. Chem. 34:404,
On to `O=C(N/C(=C\c1c[nH]c2ccccc12)C(=O)NCCc1ccccn1)OC1C2CC3CC(C2)CC1C3` (stereo not shown) [Example 3, Tricyclo[3.3.1.1^3,7]dec-2-yl (Z)-[1-(1H-indol-3-ylmethylene) -2-oxo-2-[[2-(2-pyridinyl)ethyl]amino]ethyl]carbamate], for which the Ki (commonly the dissociation constant of the complex between target and ligand, obtained from inhibition or displacement) was 507 nM.

Regarding `O=C(N/C(=C\c1c[nH]c2ccccc12)C(=O)NCCc1ccccc1)OC1C2CC3CC(C2)CC1C3` (stereo not shown) [Example 1, Carbamic acid, [1-(1H-indol-3-ylmethylene)-2-oxo-2-[(2-phenylethyl)amino]ethyl]-, tricyclo[3.3.1.1^3,7]dec-2-yl ester, (Z)-], the affinity corresponds to a Ki of 1520 nM.

Take `COC(=O)CC(=O)Nc1ccccc1CCNC(=O)/C(=C/c1c[nH]c2ccccc12)NC(=O)OC1C2CC3CC(C2)CC1C3` (stereo not shown) [4, step 2]: the inhibition constant Ki came to 616 nM.

Consider `O=C(O)CC(=O)Nc1ccccc1CCNC(=O)/C(=C/c1c[nH]c2ccccc12)NC(=O)OC1C2CC3CC(C2)CC1C3` (stereo not shown) [Example 4, (Z)-3-[[2-[2-[[3-(1H-indol-3-yl)-1-oxo-2-[[(tricyclo[3.3.1.1^3,7]dec-2-yloxy)carbonyl]amino]-2-propenyl]amino]ethyl]phenyl]amino]-3-oxopropanoic acid], for which the Ki was determined as 209 nM.

The molecule `O=C(O)C[C@H](Cc1ccccc1)NC(=O)C(=Cc1c[nH]c2ccccc12)NC(=O)OC1C2CC3CC(C2)CC1C3` (mixture of isomers) [Example 5, (E/Z)-N-[α,β-Didehydro-N-[(tricyclo[3.3.1.1^3,7]dec-2-yloxy)carbonyl]tryptophyl]-L-3-(phenylmethyl)-β-alanine] had a Ki of 0.3 nM.

`O=C(O)C[C@H](Cc1ccccc1)NC(=O)/C(=C/c1c[nH]c2ccccc12)NC(=O)OC1C2CC3CC(C2)CC1C3` (stereo partly drawn) [Example 2, (Z)-N-[α,β-Didehydro-N-[(tricyclo[3.3.1.1^3,7]dec-2-yloxy)carbonyl]tryptophyl]-L -3-(phenylmethyl)-β-alanine]: the affinity corresponds to a Ki of 13 nM.

The subject of the next experiment is hyperactivity caused by the injection of amphetamine into the nucleus accumbens of the rat. In words: Reduction of hyperactivity caused by intra-accumbens amphetamine (locomotor activity, antipsychotic test). The experiment is classed as in vivo, rat (male Sprague Dawley (CD) Bradford strain). To be noted: bilateral injection of amphetamine (20 μg) into the nucleus accumbens, 20 to 40 minutes after injection. Here is the method: The compounds of the instant invention are useful as antipsychotic agents. The compounds are tested for their ability to reduce the effects of intra-accumbens amphetamine in the rat as described hereinafter.
Male Sprague Dawley (CD) Bradford strain rats are used. The rats are housed in groups of five at a temperature of 21°±2° C. on a 12-hour light-dark cycle of lights-on between 07 hours 00 minutes and 20 hours 00 minutes. Rats are fed CRM diet (Labsure) and allowed water ad libitum.
Rats are anesthetized with chloral hydrate (400 mg/kg^-1 SC) and placed in a Kopf stereotaxic frame. Chronically indwelling guide cannulae (constructed of stainless steel tubing 0.65 mm diameter held bilaterally on Parspex holders) are implanted using standard stereotaxic techniques to terminate 3.5 mm above the center of the nucleus accumbens (Ant. 9.4, Vert. 0.0, Lat. 1.6) or 5.0 mm above the central nucleus of the amygdala (Ant. 5.8, Vert. -1.8, lat. ±4.5) (atlas of De Groot, 1959). The guides are kept patent during a 14 day recovery period using stainless steel stylets, 0.3 mm diameter, which extend 0.5 mm beyond the guide tips.
Rats are manually restrained and the stylets removed. […]
The abilities of the compounds (20) and (20A) to inhibit the hyperactivity caused by the injection of amphetamine into the nucleus accumbens of the rat is measured. […]
In turn, `CC(N)Cc1ccccc1` (stereo not shown) [amphetamine] showed a peak hyperactivity of 50 to 60 counts 5 minutes^-1.
